From patent US4582821A, “Inhibition of cyclic nucleotide independent protein kinases” (E. I. Du Pont de Nemours and Company, priority 1983, dated 1986)
Peptide text beside a SMILES is read from it. * marks the point of attachment. Cbz = O=C(OCc1ccccc1)*; CH2Cl = ClC*

Experiments:
[1] = test system: A-431 plasma membrane extracts (EGF-mediated protein phosphorylation); assay: Protein phosphorylation in solubilized A-431 plasma membrane extracts, with or without EGF; format: biochemical, human; details: 477 nmol/mg protein; for EGF Added (pmol 32P incorporated/min/mg protein): control 96.2; for No EGF Added (pmol 32P incorporated/min/mg protein): control 21.6
Method: The capacity of certain peptide halomethyl ketones to inhibit protein phosphorylation is illustrated by Examples 1-8, below, in which solubilized plasma membranes prepared from A-431 human epidermoid carcinoma cells were incubated with [γ-^32 P] ATP in the presence of EGF.
A-431 human epidermoid carcinoma cells were grown in Dulbecco's modified Eagle's medium containing 5% fetal calf serum. Plasma membranes were isolated by a method substantially similar to that described by Thom et al., Biochem J. 168:187 (1977), and kept at -70°. Solubilization of plasma membranes was performed substantially as described by Cohen et al., J. Biol. Chem. 255:4834 (1980). In this procedure, 7.5 mg/mL protein was solubilized with 5% Triton X-100 (octylphenol), 10% glycerol, and 20 mM Hepes buffer (N-2-hydroxyethylpiperazine-N^1 -2-ethanesulfonic acid), pH 7.4. This mixture was incubated for 20 minutes at about 23°, followed by centrifugation at 100,000 xg for 60 minutes.
(§1) Protein phosphorylation assays were conducted substantially as described by Carpenter et al., J. Biol. Chem. 254:4884 (1979). Each assay mixture contained, in a final volume of 70 μL: 20 mM Hepes, pH 7.4, 0.01% bovine serum albumin (BSA), 15-150 μg protein in Triton extract, 100 ng EGF, 1 mM MnCl2 and 10-20 μM [γ-^32 P] ATP (2-4 μCi). Peptide halomethyl ketones were added as solutions in ethanol; an equivalent volume of ethanol was added to controls. Assay mixtures were incubated at about 23° for ten minutes, with or without added EGF. Mixtures were then held at 0° for ten minutes before initiation of phosphorylation by addition of 15 μM γ-^32 P) ATP (2 μCi). Reactions were terminated after 3 minutes at 0° by applying an aliquot of the assay mixture to a Whatman 3MM filter paper (2×2 cm), which was then suspended in ice-cold 10% trichloroacetic acid containing 10 mM pyrophosphate. This suspension was gently shaken for a period of 1 hour, during which the trichloroacetic acid/pyrophosphate mixture was changed three times. Finally, the filter papers were dried and radioactivity measured by scintillation counting.

[2] = test system: lymphoma cell line MOLT-4; assay: Tumor cell line growth inhibition, MOLT-4; format: cell-based
Method: (§2) In this series of experiments, the tumor cell growth inhibitory capacity of various peptide halomethyl ketones was tested against lymphoma cell lines YAC-1 and MOLT-4, and against an erythroleukemia cell line, K-562. The lymphoma cell line YAC-1 is described by Kiessling, et al., Eur. J. Immunol. 5:112 (1975), and MOLT-4 is described by Minowada, et al., J. Natl. Cancer Inst. 49:891 (1972) and Nilsson, et al., Int. J. Cancer 15:321 (1975). The erythroleukemia cell line K-562 is described by Lozzio, et al., Leuk. Res. 3:363 (1979). In these experiments, cells were grown on standard media as 10 mL suspension cultures. Initial cell density was 10^5 cells/mL. At day 0, test compounds were introduced in ethanol; control cultures received an equal volume of ethanol. Cells were counted at the times indicated.

[3] = target: T1, A-431 cell EGF receptor (Homo sapiens, UniProt P00533); assay: Protein phosphorylation of A-431 cell membrane EGF receptors (intact membranes, EGF present); format: biochemical; details: 600 nmoles/mg protein, intact A-431 membranes
T1 construct: intact A-431 cell membranes were employed, rather than solubilized extracts; endogenous in cells; host or cells: A-431 human epidermoid carcinoma cells (plasma membranes)
Method: as §1
Assays were conducted substantially as described above, except intact A-431 cell membranes were employed, rather than solubilized extracts, and assay mixtures contained 1 mM ouabain. In these Examples, reactions were permitted to proceed for 6 minutes. This technique is substantially similar to that disclosed by Navarro et al., Biochemistry, 21:6138 (1982).

[4] = test system: erythroleukemia cell line K-562; assay: Tumor cell line growth inhibition, K-562; format: cell-based
Method: as §2

[5] = test system: lymphoma cell line YAC-1; assay: Tumor cell line growth inhibition, YAC-1; format: cell-based
Method: as §2

T1 sequence (P00533 25-1210): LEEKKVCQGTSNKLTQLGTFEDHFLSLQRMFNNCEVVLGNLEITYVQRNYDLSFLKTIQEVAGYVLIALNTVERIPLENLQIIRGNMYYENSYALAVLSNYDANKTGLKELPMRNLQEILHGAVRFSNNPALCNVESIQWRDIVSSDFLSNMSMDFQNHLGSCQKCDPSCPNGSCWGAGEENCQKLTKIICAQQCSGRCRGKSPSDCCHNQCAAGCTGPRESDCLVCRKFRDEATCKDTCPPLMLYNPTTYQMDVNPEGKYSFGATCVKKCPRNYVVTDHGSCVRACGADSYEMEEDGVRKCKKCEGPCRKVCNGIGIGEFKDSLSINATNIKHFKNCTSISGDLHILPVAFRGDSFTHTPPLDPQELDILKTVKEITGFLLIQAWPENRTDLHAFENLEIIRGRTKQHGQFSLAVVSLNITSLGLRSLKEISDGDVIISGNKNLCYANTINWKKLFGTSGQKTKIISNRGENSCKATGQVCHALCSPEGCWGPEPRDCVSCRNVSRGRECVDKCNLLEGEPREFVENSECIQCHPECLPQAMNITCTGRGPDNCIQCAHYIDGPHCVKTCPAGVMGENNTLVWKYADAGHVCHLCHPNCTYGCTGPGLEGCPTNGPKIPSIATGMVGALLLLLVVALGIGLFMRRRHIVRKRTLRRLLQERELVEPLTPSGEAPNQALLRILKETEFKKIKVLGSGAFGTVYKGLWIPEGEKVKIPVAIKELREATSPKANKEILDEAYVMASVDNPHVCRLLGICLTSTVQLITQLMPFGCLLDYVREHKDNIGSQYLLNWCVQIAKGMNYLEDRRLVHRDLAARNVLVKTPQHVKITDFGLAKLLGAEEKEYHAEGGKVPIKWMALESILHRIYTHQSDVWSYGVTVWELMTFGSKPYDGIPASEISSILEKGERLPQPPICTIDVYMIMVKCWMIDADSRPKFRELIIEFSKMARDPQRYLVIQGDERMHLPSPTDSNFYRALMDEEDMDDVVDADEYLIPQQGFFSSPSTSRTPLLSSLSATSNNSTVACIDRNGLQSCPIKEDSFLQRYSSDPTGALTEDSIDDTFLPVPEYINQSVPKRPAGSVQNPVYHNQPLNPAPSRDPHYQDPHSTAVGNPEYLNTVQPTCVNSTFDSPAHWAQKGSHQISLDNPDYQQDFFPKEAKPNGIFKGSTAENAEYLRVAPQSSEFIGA

SMILES | % Growth Relative to Control Cultures ([2]; 0.4 μg/mL, day 1) [%] | % Growth Relative to Control Cultures ([2]; 0.4 μg/mL, day 2) [%] | % Growth Relative to Control Cultures ([2]; 2.0 μg/mL, day 1) [%] | % Growth Relative to Control Cultures ([2]; 2.0 μg/mL, day 2) [%] | % Growth Relative to Control Cultures ([2]; 2.0 μg/mL, day 3) [%] | % Growth Relative to Control Cultures ([2]; 2.0 μg/mL, day 4) [%] | % Growth Relative to Control Cultures ([2]; 10. μg/mL, day 2) [%] | % Growth Relative to Control Cultures ([2]; 10. μg/mL, day 3) [%] | % Growth Relative to Control Cultures ([2]; 10. μg/mL, day 4) [%] | % Growth Relative to Control Cultures ([2]; 10. μg/mL, day 7) [%] | % inhibition [3] [%] | % Growth Relative to Control Cultures ([4]; 2.0 μg/mL, day 1) [%] | % Growth Relative to Control Cultures ([4]; 2.0 μg/mL, day 2) [%] | % Growth Relative to Control Cultures ([4]; 2.0 μg/mL, day 3) [%] | % Growth Relative to Control Cultures ([4]; 2.0 μg/mL, day 4) [%] | % Growth Relative to Control Cultures ([4]; 10. μg/mL, day 1) [%] | % Growth Relative to Control Cultures ([4]; 10. μg/mL, day 2) [%] | % Growth Relative to Control Cultures ([4]; 10. μg/mL, day 3) [%] | % Growth Relative to Control Cultures ([4]; 10. μg/mL, day 4) [%] | % Growth Relative to Control Cultures ([4]; 10. μg/mL, day 7) [%] | also measured
CC(C)C[C@H](NC(=O)OC(C)(C)C)C(=O)CCl [Boc-LeuCH2 Cl] | 73 | 86 | 47 | 28 | 10 | 11 | 38 | 3 | 3 | 4 | 7 | 17 | 31 | 8 | 15 | 8 | 17 | 3 | 6 | 3 | % inhibition, EGF Added [1]: 28%; EGF Added (pmol 32P incorporated/min/mg protein) [1]: 69.0 pmol^32 P incorporated/min/mg; % inhibition, No EGF Added [1]: 48%; No EGF Added (pmol 32P incorporated/min/mg protein) [1]: 11.3 pmol^32 P incorporated/min/mg; % Growth Relative to Control Cultures ([2]; 0.4 μg/mL, day 3): 73%; % Growth Relative to Control Cultures ([2]; 0.4 μg/mL, day 7): 86%; % Growth Relative to Control Cultures ([2]; 2.0 μg/mL, day 7): 63%; % Growth Relative to Control Cultures ([4]; 0.4 μg/mL, day 1): 47%; % Growth Relative to Control Cultures ([4]; 0.4 μg/mL, day 3): 53%; % Growth Relative to Control Cultures ([4]; 2.0 μg/mL, day 7): 37%
CC(C)(C)OC(=O)N[C@@H](Cc1ccc(O)cc1)C(=O)CCl [Boc-TyrCH2 Cl] | 80 | – | 56 | 31 | 17 | 16 | 19 | 8 | 3 | 0 | 34 | 81 | 23 | 15 | 19 | 64 | 7 | 2 | 2 | 0 | % inhibition, EGF Added [1]: 45%; EGF Added (pmol 32P incorporated/min/mg protein) [1]: 53.0 pmol^32 P incorporated/min/mg; % inhibition, No EGF Added [1]: 64%; No EGF Added (pmol 32P incorporated/min/mg protein) [1]: 7.8 pmol^32 P incorporated/min/mg; % Growth Relative to Control Cultures ([2]; 0.4 μg/mL, day 3): 85%; % Growth Relative to Control Cultures ([2]; 0.4 μg/mL, day 4): 69%; % Growth Relative to Control Cultures ([2]; 2.0 μg/mL, day 7): 31%; % Growth Relative to Control Cultures ([2]; 10. μg/mL, day 1): 39%; % Growth Relative to Control Cultures ([4]; 2.0 μg/mL, day 7): 44%
CC(C)C[C@H](NC(=O)[C@H](CO)NC(=O)CNC(=O)[C@H](Cc1ccccc1)NC(=O)OCc1ccccc1)C(=O)CCl [Z--Phe-Gly-Ser-LeuCH2 Cl, Z-Phe-Gly-Ser-LeuCH2 Cl] (Cbz-FGSL-CH2Cl) | 77 | 40 | 42 | 27 | 87 | 74 | 17 | 76 | 29 | 49 | 54 | 66 | 13 | 38 | 40 | – | 14 | 17 | 20 | 65 | % Growth Relative to Control Cultures ([5]; 0.4 μg/mL, day 2): 63%; % Growth Relative to Control Cultures ([5]; 0.4 μg/mL, day 3): 68%; % Growth Relative to Control Cultures ([5]; 0.4 μg/mL, day 4): 74%; % Growth Relative to Control Cultures ([5]; 0.4 μg/mL, day 7): 61%; % Growth Relative to Control Cultures ([5]; 2.0 μg/mL, day 2): 80%; % Growth Relative to Control Cultures ([5]; 2.0 μg/mL, day 3): 60%; % Growth Relative to Control Cultures ([5]; 2.0 μg/mL, day 4): 66%; % Growth Relative to Control Cultures ([5]; 2.0 μg/mL, day 7): 75%; % Growth Relative to Control Cultures ([5]; 10. μg/mL, day 1): 62%; % Growth Relative to Control Cultures ([5]; 10. μg/mL, day 2): 40%; % Growth Relative to Control Cultures ([5]; 10. μg/mL, day 4): 40%; % Growth Relative to Control Cultures ([5]; 10. μg/mL, day 7): 64%; % Growth Relative to Control Cultures ([2]; 10. μg/mL, day 1): 38%; % Growth Relative to Control Cultures ([4]; 0.4 μg/mL, day 2): 28%; % Growth Relative to Control Cultures ([4]; 0.4 μg/mL, day 3): 27%; % Growth Relative to Control Cultures ([4]; 0.4 μg/mL, day 4): 49%; % Growth Relative to Control Cultures ([4]; 0.4 μg/mL, day 7): 81%
CC(C)C[C@H](NC(=O)[C@H](C)NC(=O)[C@H](CO)NC(=O)[C@H](Cc1ccccc1)NC(=O)OCc1ccccc1)C(=O)CCl [Z--Phe-Ser-Ala-LeuCH2 Cl, Z-Phe-Ser-Ala-LeuCH2 Cl] (Cbz-FSAL-CH2Cl) | – | 80 | – | 85 | – | – | 16 | 4 | 2 | 11 | 44 | – | 72 | – | – | 44 | 4 | 2 | 4 | 7 | % Growth Relative to Control Cultures ([5]; 0.4 μg/mL, day 1): 58%; % Growth Relative to Control Cultures ([5]; 0.4 μg/mL, day 2): 49%; % Growth Relative to Control Cultures ([5]; 2.0 μg/mL, day 1): 53%; % Growth Relative to Control Cultures ([5]; 2.0 μg/mL, day 2): 53%; % Growth Relative to Control Cultures ([5]; 2.0 μg/mL, day 7): 76%; % Growth Relative to Control Cultures ([5]; 10. μg/mL, day 1): 63%; % Growth Relative to Control Cultures ([5]; 10. μg/mL, day 2): 21%; % Growth Relative to Control Cultures ([5]; 10. μg/mL, day 3): 16%; % Growth Relative to Control Cultures ([5]; 10. μg/mL, day 4): 16%; % Growth Relative to Control Cultures ([5]; 10. μg/mL, day 7): 17%; % Growth Relative to Control Cultures ([2]; 10. μg/mL, day 1): 64%; % Growth Relative to Control Cultures ([4]; 0.4 μg/mL, day 1): 82%; % Growth Relative to Control Cultures ([4]; 0.4 μg/mL, day 2): 66%
